Experimental data taken from patent US12180198B2, “Ribocil C antibiotics effective for Gram-negative pathogens” (THE BOARD OF TRUSTEES OF THE UNIVERSITY OF ILLINOIS, priority 2018, dated 2024).
Structures can show the parent of a compound that is named as a salt.

Tests used:
[1] = test system: carbepenem-resistant K. pneumoniae; assay: Sepsis survival and pneumonia bacterial burden models; format: in vivo; details: CD-1 mice, K. pneumoniae BAA-1705, 50 mg/kg IV
Procedure: (§1) FIG. 4. In vivo efficacy of Debio-1452-NH3. A. Kaplan-Meier survival curve of mouse efficacy model of A. baumannii sepsis. Seven-week-old CD-1 mice were infected with A. baumannii W41979 (2.6×10^8 CFU/mouse, 15 mice per group) via IV injection. Mice were treated once-a-day for 4 days with FabI inhibitor (IV, 50 mg/kg). Log-rank test, p<0.0001. B. Acute pneumonia infections initiated in CD-1 mice with A. baumannii W41979 (2.1×10^8 CFU/mouse, intranasal) were treated with vehicle (8 mice) or FabI inhibitor (10 mice per group) 8, 30, and 48 h post-infection (IV, 50 mg/kg), and the bacterial burden was evaluated 72 h post-infection. C. […] Acute pneumonia infections initiated in CD-1 mice with K. pneumoniae BAA-1705 (4.4×10^8 CFU/mouse, intranasal) were treated with vehicle or FabI inhibitor (8 mice per group) 6, 23, and 45 h post-infection (IV, 50 mg/kg), and the bacterial burden was evaluated 72 h post-infection. […] Acute pneumonia infections initiated in CD-1 mice with E. coli AR-0493 (1.73×10^8 CFU/mouse, intranasal) were treated with vehicle or FabI inhibitor (8 mice per group) 6 and 28 h post-infection (IV, 50 mg/kg), and the bacterial burden was evaluated 48 h post-infection. […]
(§2) Acute pneumonia bacterial burden model. […] At 48 h post-infection (E. coli) or 72 h post-infection (A. baumannii and K. pneumoniae), CFU were determined in the lungs through serial dilutions. […]

[2] = test system: colistin-resistant E. coli; assay: as above; format: in vivo; details: CD-1 mice, E. coli AR-0493, 50 mg/kg IV
Procedure: as §1, §2

Mouse MTD = assay: Mouse MTD
Procedure: The protocol was approved by the IACUC at the University of Illinois at Urbana-Champaign (Protocol Number: 16144). In these studies, 10- to 12-week-old female C57BL/6 mice purchased from Charles River were used. The maximum tolerate dose (MTD) of a single compound was determined first. […] For multiple doses, the compound was given by daily IP for 5 consecutive days and mice were monitored for signs of toxicity for 1 month. MTD was the highest dosage with acceptable toxicity (e.g., <20% weight loss). Single dose MTDs were initially determined.

[3] = test system: strains harboring FabI G148S; assay: MIC against resistant mutants; format: cell-based, E. coli; details: Escherichia coli, FABIG148S
Procedure: (§3) Antimicrobial susceptibility tests. Susceptibility testing was performed in biological triplicate, using the micro-dilution broth method as outlined by the Clinical and Laboratory Standards Institute. Bacteria were cultured with cation-adjusted Muller-Hinton broth (Sigma-Aldrich, Cat #90922) in round-bottom 96-well plates (Corning, Cat #3788). Human serum (pooled gender, 0.2 μm filtered) was purchased from BioIVT (Hicksville, NY).
(§4) Selection of resistant mutants. Resistant mutants were selected via the large inoculum method.

[4] = test system: E. coli harboring FabI A116V; assay: MIC against resistant mutants; format: cell-based; details: Escherichia coli
Procedure: as §3, §4

A. baumannii W41979 [5] = assay: Bacterial sepsis survival model; format: in vivo; details: CD-1 mice, 50 mg/kg IV once-per-day, four doses
Procedure: as §1, with “C. Kaplan-Meier survival curve of in vivo efficacy model of K. pneumonia sepsis. Seven-week-old CD-1 mice were infected with K. pneumoniae BAA-1705 (1.08×10^8 CFU/mouse, 15 mice per group) via IV injection.” for “C.”

A. baumannii W41979 [6] = assay: Acute pneumonia bacterial burden model; format: in vivo; details: CD-1 mice, 50 mg/kg IV
Procedure: as §1, §2

With `Cc1c(CN(C)C(=O)/C=C/c2cnc3c(c2)CC(N)C(=O)N3)oc2ccccc12` (stereo not drawn) [Debio-1452-NH3, (E)-3-(6-amino-7-oxo-5,6,7,8-tetrahydro-1,8-naphthyridin-3-yl)-N-methyl-N-((3-methylbenzofuran-2-yl)methyl)acrylamide hydrochloride] the “efficacy in infected mice (in words)” value [1] was “efficacy”, the “efficacy in infected mice (in words)” value [2] was “efficacy” and the “dose well tolerated in mice” value (Mouse MTD; female, C57BL/6, mouse, in vivo, ip, 5 days) was 50 mg/kg. For the same compound, the “single dose well tolerated” value (Mouse MTD; mice, IP injection, single dose, monitored 2 weeks) was 50 mg/kg, the “daily dosing well tolerated” value (Mouse MTD; mice, IP, daily for 5 consecutive days) was 50 mg/kg and the MIC [3] was > 64 µg/mL. The MIC [4] was 64 µg/mL, the “survival (in words)” value (A. baumannii W41979 [5]) was “significantly increased survival” and the “bacterial burden (in words)” value (A. baumannii W41979 [6]) was “reduced bacterial burden”.
